# Assay results reported in article PMC11597085 (Molecules, 2024).
# Read-outs that look alike come from different tables or passages of the source.
# Assays:
# [1] = Chemical stability in water (10 mM) at 60 °C by HPLC; assay type: physicochemical; settings: for Chemical stability, Initial (%): HPLC AUC, 0 h set to 100%; for Chemical stability, 24 h / Chemical stability, 48 h / Chemical stability, 76 h / Chemical stability, 164 h / Chemical stability, 330 h: storage at 60 °C, HPLC
# Description: For this purpose, high-performance liquid chromatography (HPLC) was employed to measure any changes in these species upon storage at 60 °C (Table 1).
# [2] = Stability of Ramalin in water vs deoxygenated water (10 mM, 48 h, 25 °C); assay type: physicochemical
# Description: This is evidenced by the increased stability when dissolved in deoxygenated water compared to water containing dissolved oxygen. […] We attempted modifications by introducing a methyl group into phenyl hydrazine to prevent conversion into the azo form or by linking the phenyl group to a benzophenone structure to block electron flow and mitigate oxidation, thereby enhancing stability.
# BACE-1 = target: T1, BACE-1 (Homo sapiens, UniProt P56817); assay: BACE-1 FRET inhibition assay; assay type: biochemical
# T1 construct: purchased PanVera Corp. / Thermo Fisher Scientific P2985
# Description: A BACE-1 inhibition assay was performed using a β-Secretase FRET kit (BACE-1, Thermo Fisher Scientific, San Diego, CA, USA) following the manufacturer’s instructions. […] In black 96-well microplates, 10 µL of the BACE-1 substrate was added to the diluted samples. The reaction was initiated by adding 10 µL of 3× BACE-1 enzyme to each well. The plates were incubated for 60 min at RT in the dark. After incubation, the reaction was stopped by adding 10 µL of 2.5 mM sodium acetate to each well. […] The IC50 value was determined by plotting the relative fluorescence units per hour (RFU/h) against the logarithmic inhibitor concentrations. All experiments were conducted in triplicate.
# NLRP3 = NLRP3 ELISA in LPS-induced RAW264.7 cells; assay type: cell-based, murine; settings: 25 µM (method: 20 µM), LPS 0.5 µg/mL, 24 h
# Description: The induced cytokines further contribute to AD pathology by hyperphosphorylation of the tau protein [19]. Additionally, the activation of NLRP3 has been implicated in the pathogenesis of AD [20, 21], and this inflammatory response fosters the generation of Aβ and tau, ultimately contributing to disease progression. Thus, to determine the anti-inflammatory activities of the prepared derivatives, we measured the inhibition of nitrogen oxide (NO) and NLRP3 in LPS-induced RAW264.7 cells. The active concentration for activity assessment was established as 25 µM, at which cell viability had been previously confirmed.
# RAW 264.7 macrophages were seeded at a density of 5 × 10^5 cells/well in 96-well plates and treated with 20 µM of RA-Hyd-Me, RA-Hyd-Me-tol, RA-Benzo, and RA-Sali for 1 h and then stimulated with 0.5 μg/mL LPS for 24 h. Culture supernatant levels of NOD-like receptor pyrine domain containing-3 (NLRP3) were determined using a commercially available ELISA kit (Lsbio, Seattle, WA, USA) and following the instructions of the manufacturer. The absorbance of the plate was read at a wavelength of 450 nm. NLRP3 was determined from a standard curve. The concentrations were expressed as ng/mL. To obtain statistical significance, all experiments were carried out in duplicate.
# [3] = target: T2, acetylcholinesterase (AChE) (Electrophorus electricus, UniProt O42275); assay: biochemical
# T2 construct: purchased Sigma-Aldrich C3389
# [4] = tested on: phosphorylated tau (P-tau); assay: P-tau level ELISA in SH-SY5Y cells; settings: Homo sapiens, 24 h, read-out: P-tau inhibition
# Description: SH-SY5Y cells were grown in a complete growth medium comprising Dulbecco’s Modified Eagle Medium (DMEM) supplemented with 10% fetal bovine serum (FBS) and 1% penicillin/streptomycin. For treatment, adherent SH-SY5Y cells were plated in 96-well plates at a density of 2 × 10^6 cells per well. Levosimendan (Sigma, St. Louis, MO, USA) was used as an inhibitor to verify the effect on tau inhibition. Upon treatment with 20 μM of each substance, the cells were cultured for 24 h. The supernatant was then collected and used in subsequent ELISA assays.
# The tau levels were assessed using a Human Tau ELISA kit (Abcam, Cambridge, UK). After treatment, the supernatant was diluted five times. The diluted supernatant, capture antibody, and detection antibody were mixed in a 2:1:1 ratio and incubated for 1 h. The wells were then washed three times with a wash buffer. After removing the buffer, 100 µL of 3,3′,5,5′-tetramethylbenzidine developer was added and incubated for 10 min, followed by the addition of 100 µL stop solution. The optical density was measured at 450 nm. Data analysis was performed by calculating the mean and standard deviation using GraphPad Prism 8 (GraphPad, San Diego, CA, USA).
# [5] = DPPH radical scavenging assay; assay type: biochemical; settings: methanol, 30 min, RT, dark
# Description: The mixture was then kept in the dark at RT for 30 min. Afterward, the absorbance was measured at 540 nm.
# [6] = FRET kit, 60 min, RT, triplicate, read-out: BACE-1 IC50
# T1 sequence (P56817 46-501): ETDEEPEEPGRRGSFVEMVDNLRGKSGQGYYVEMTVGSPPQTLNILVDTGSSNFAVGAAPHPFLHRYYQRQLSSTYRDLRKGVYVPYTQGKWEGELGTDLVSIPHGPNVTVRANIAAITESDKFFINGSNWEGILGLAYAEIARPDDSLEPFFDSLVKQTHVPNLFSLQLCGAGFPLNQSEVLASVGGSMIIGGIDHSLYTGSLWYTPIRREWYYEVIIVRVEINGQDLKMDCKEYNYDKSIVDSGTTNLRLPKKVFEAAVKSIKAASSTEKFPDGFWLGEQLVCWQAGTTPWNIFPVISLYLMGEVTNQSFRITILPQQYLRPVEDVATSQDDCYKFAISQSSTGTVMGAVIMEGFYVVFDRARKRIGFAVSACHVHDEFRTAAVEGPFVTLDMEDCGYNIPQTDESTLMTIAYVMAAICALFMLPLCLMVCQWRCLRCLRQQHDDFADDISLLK
# T2 sequence (O42275 24-633): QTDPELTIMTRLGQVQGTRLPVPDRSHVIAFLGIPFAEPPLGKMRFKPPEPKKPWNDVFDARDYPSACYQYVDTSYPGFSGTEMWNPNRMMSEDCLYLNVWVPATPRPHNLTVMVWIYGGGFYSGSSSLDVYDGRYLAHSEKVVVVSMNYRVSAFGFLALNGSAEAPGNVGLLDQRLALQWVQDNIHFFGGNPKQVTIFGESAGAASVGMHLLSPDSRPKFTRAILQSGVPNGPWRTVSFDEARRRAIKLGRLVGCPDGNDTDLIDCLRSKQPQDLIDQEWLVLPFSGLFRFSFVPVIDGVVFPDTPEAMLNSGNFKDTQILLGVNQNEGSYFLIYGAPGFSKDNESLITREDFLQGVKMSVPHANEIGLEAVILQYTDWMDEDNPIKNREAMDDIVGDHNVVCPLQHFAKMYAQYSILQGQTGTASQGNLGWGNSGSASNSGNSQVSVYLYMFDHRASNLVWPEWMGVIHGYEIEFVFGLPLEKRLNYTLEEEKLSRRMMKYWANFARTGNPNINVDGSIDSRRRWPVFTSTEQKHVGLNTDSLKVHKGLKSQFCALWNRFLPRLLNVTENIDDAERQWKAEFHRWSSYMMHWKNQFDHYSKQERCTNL
structure (smiles),measurement,setting,value
"N[C@@H](CCC(=O)NNc1ccccc1O)C(=O)O [Ramalin, reference compound]","Chemical stability, Initial (%)",[1],100% ^1
same,"Chemical stability, 24 h",[1],35.1% ^2
same,"Chemical stability, 48 h",[1],17.1%
same,"Chemical stability, 76 h",[1],7.6%
same,Ramalin remained in deoxygenated water,[2]; deoxygenated water,92%
same,Ramalin remained in regular water,[2]; regular water,about 53%
"Cl.N[C@@H](CCC(=O)NNC(=O)c1ccccc1O)C(=O)O [RA-Sali, N^5-(2-hydroxybenzamido)-L-glutamine hydrochloride]","Chemical stability, Initial (%)",[1],100%
same,"Chemical stability, 24 h",[1],99.6%
same,"Chemical stability, 48 h",[1],96.7%
same,"Chemical stability, 76 h",[1],93.3%
same,"Chemical stability, 164 h",[1],82.6%
same,"Chemical stability, 330 h",[1],69.1%
same,IC50,BACE-1; [6],8.44 ± 5.16 µM
same,NLRP3 inhibitory activity,NLRP3,~ 25%
same,inhibition at 50 µM,[3],7.8%
same,inhibition at 20 µM,[4],~40%
"CN(NC(=O)CC[C@H](N)C(=O)O)c1ccccc1 [RA-Hyd-Me, N^5-(methyl(phenyl)amino)-L-glutamine]","Chemical stability, Initial (%)",[1],100%
same,"Chemical stability, 24 h",[1],97.5%
same,"Chemical stability, 48 h",[1],94.5%
same,"Chemical stability, 76 h",[1],91.1%
same,"Chemical stability, 164 h",[1],80.3%
same,"Chemical stability, 330 h",[1],65.4%
same,IC50,[5],14.4 µM
same,IC50,BACE-1,15.5 ± 5.8 µM
same,inhibition at 20 µM,[4],10 to 15%
"Cl.N[C@@H](CCC(=O)NNC(=O)c1ccccc1)C(=O)O [RA-Benzo, N^5-benzamido-L-glutamine hydrochloride]","Chemical stability, Initial (%)",[1],100%
same,"Chemical stability, 24 h",[1],97.2%
same,"Chemical stability, 48 h",[1],94.4%
same,"Chemical stability, 76 h",[1],91.5%
same,"Chemical stability, 164 h",[1],82.5%
same,"Chemical stability, 330 h",[1],68.0%
same,IC50,BACE-1; [6],144 ± 87.1 µM
same,inhibition at 20 µM,[4],10 to 15%
"Cc1cccc(N(C)NC(=O)CC[C@H](N)C(=O)O)c1 [RA-Hyd-Me-Tol, N^5-(methyl(m-tolyl)amino)-L-glutamine]","Chemical stability, Initial (%)",[1],100%
same,"Chemical stability, 24 h",[1],97.5%
same,"Chemical stability, 48 h",[1],94.6%
same,"Chemical stability, 76 h",[1],91.0%
same,"Chemical stability, 164 h",[1],80.0%
same,"Chemical stability, 330 h",[1],63.4%
same,IC50,[5],12.4 µM
same,IC50,BACE-1; [6],22.5 ± 1.76 µM
same,inhibition at 20 µM,[4],10 to 15%
